PMC11530130, “Peripherally restricted PICK1 inhibitor mPD5 ameliorates pain behaviors in murine inflammatory and neuropathic pain models” (JCI Insight, 2024)
Where “and” joins values, the source holds several entries; their conditions need not be identical. Equal values may be shown once.

Assays:
naive mice = experiment: Single exposure place preference (sePP), naive mice; format: in vivo, mouse
Protocol: On days 6-8, the escape hole was moved
90 degrees, and all mice went through the second bout of training. On day nine, a second probe trial was performed testing the reversal learning of the mice.
Cancer induced bone pain was induced as described in the “Induction of cancer induced bone pain (CIBP model)"-section. For the assessment of limb use, all mice from one cage were placed in an empty transparent plastic box and left for ten min to habituate. One mouse at a time was moved by tunnel handling or scooping to an identical plastic box for the limb use test. […]
gait, 3 Insignificant limping, 2 Significant limping and shift in bodyweight towards the healthy limb 1 Significant limping and partial lack of use of ipsilateral leg 0 Total lack of use of ipsilateral leg. A score of 0 was used as a humane endpoint. Urine and faeces were cleaned from the plastic box with a dry paper towel between mice from the same cage, and a new plastic box was used for mice from different cages. The limb use test was video filmed for later […]
Assessment of static weight bearing. […]
Initial perception of the drugs was measured by single exposure place preference experiments performed in an elongated three compartment apparatus (67.5 cm x 24 cm) with a biased design of different floor textures and wall patterns and a neutral zone in the middle. […]

[1] = Plasma exposure after repeated s.c. administration (10 + 2 + 2 + 2 + 2 μmol/kg), LC-MS/MS; format: in vivo, mouse; conditions: for Plasma exposure, Fig 7B, individual mice: 10µmol/kg repeated
Protocol: Assessment of plasma levels and biodistribution of mPD5.
The mPD5 plasma exposure was determined by (WuXI AppTec (Shanghai, China)) and done following s.c. injection of three male C57BL/6N (vendor: VTLH) mice (7-9 weeks old, fasted) with each concentration of mPD5 (2, 10 and 50 µmol/kg) in sterile PBS. Blood samples were taken 30 min, 1 hour, 2 hours, 5 hours, and 12 hours following injection. For the repeated administration experiment, the initial s.c. injection of 10 µmol/kg was followed by 4 s.c. administrations of 2 µmol/kg with one hour between injections. Following the last injection, blood samples (0.03 mL from saphenous vein or other suitable site) were collected in EDTA- […]
K2 tubes at 5 min, 30 min, 1 hour, 5 hours, 12 hours, 24 hours, and 48 hours and centrifuged (app 4 ℃, 3200 g, 10 min) for collection of plasma. Plasma was transferred to 96 well plates and quick-frozen over dry ice and kept at -60 ℃ until LC-MS/MS analysis. For LC-MS/MS analysis plasma with 0.25% Triton X100 in 50% MeOH/water (6 µL) was quenched with 160 µL of IS1 (internal standard in MeOH (Labetalol & tolbutamide & Verapamil & dexamethasone & glyburide & Celecoxib 100 ng/mL for each)) and the mixture was vortexed for 10 min at 800 rpm and centrifuged for 15 min at 3220 × g at 4 ℃. An aliquot of 65 µL supernatant was transferred to a clean 96-well plate and centrifuged for 5 min at 3220 × g at 4 ℃, then the supernatant was directly injected for LC-MS/MS analysis. Plasma half-lives were determined from three points in the elimination phase. […]

## CCCCCCCCCCCCCC(=O)N(CCOCCOCCC(=O)N[C@@H](Cc1c[nH]cn1)C(=O)N[C@@H](Cc1c[nH]c2ccccc12)C(=O)N[C@@H](CC(C)C)C(=O)N[C@@H](CCCCN)C(=O)N[C@H](C(=O)O)C(C)C)CCOCCOCCC(=O)N[C@@H](Cc1c[nH]cn1)C(=O)N[C@@H](Cc1c[nH]c2ccccc12)C(=O)N[C@@H](CC(C)C)C(=O)N[C@@H](CCCCN)C(=O)N[C@H](C(=O)O)C(C)C [mPD5, myristoyl-NPEG4-(HWLKV)2]
Naive mice; naive mice conditioned with 30 μmol/kg
  time spent in the paired compartment, individual mice: 310.53 and 374.063 and 737.926 and 573.794 and 360.996 and 424.662 and 697.46
Naive mice; naive mice, 30 μmol/kg
  preference compared to PBS (intrinsic rewarding properties, sePP): did not show any preference
[1]; time 0.5
  Plasma exposure, Fig 7B, individual mice: 3149 and 2827 and 2358
[1]; time 1
  Plasma exposure, Fig 7B, individual mice: 3071 and 3116 and 2251
[1]; time 5
  Plasma exposure, Fig 7B, individual mice: 8.66 and 8.95 and 4.61
[1]; C57BL/6N, mouse, plasma, sc, s.c. 10 μmol/kg followed by 4 x 2 μmol/kg in 1-hour intervals
  half-life: 31.2 ± 1.2 min
